Data reported in EP0498290B1, “Pyridobenzodiazepines, dipyrido [3,2-b:2',3'-e] [1,4]diazepines and their use in the prevention or treatment of HIV infection” (BOEHRINGER INGELHEIM PHARMACEUTICALS INC., priority 1991, dated 1992).
≈ marks a conversion by molar mass, not a printed value. Like-named read-outs stand apart in the source and are kept apart here.

Assays:
[1] = target: T1, HIV-1 RT (Human immunodeficiency virus type 1 group M subtype B, UniProt P03367); test: Reverse Transcriptase (RT) Assay: RNA-dependent DNA polymerase activity, poly r(C)/oligo d(G) template, 3H-dGTP; assay type: biochemical
T1 construct: Reverse transcriptase enzyme from the LAV strain of Human Immunodeficiency Virus (HIV-1) (1) was isolated from the bacterial strain JM109; made in house; host or cells: E. coli JM109, clone pBRTprt1+ in vector pIBI21 (lac promoter, IPTG induction)
Excerpt: Utilizing the Reverse Transcriptase (RT) Assay described below, compounds can be tested for their ability to inhibit the RNA-dependent DNA polymerase activity of HIV-1 RT. Certain specific compounds described in the Examples which appear below, were so tested.
Among the enzymes for which Human Immunodeficiency Virus (HIV-1) encodes is a reverse transcriptase (1), so-named because it transcribes a DNA copy from an RNA template. This activity can be quantitatively measured in a cell-free enzyme assay, which has been previously described (2), and is based upon the observation that reverse transcriptase is able to use a synthetic template [poly r(C) primed with oligo d(G)] to transcribe a radio-labelled, acid-precipitable DNA strand utilizing ^3H-dGTP as a substrate.
Reverse transcriptase enzyme from the LAV strain of Human Immunodeficiency Virus (HIV-1) (1) was isolated from the bacterial strain JM109 (3) expressing the DNA clone pBRTprt1+ (2) which is under the control of the lac promotor in the expression vector pIBI21 (4). An overnight culture grown in 2XYT medium (37°C, 225 rpm) (5) supplemented with 100 µg/ml ampicillin for positive selection is inoculated at a 1:40 dilution into M9 medium supplemented with 10µg/ml thiamine, 0.5% casamino acids, and 50 µg/ml ampicillin (5). The culture is incubated (37°C, 225 rpm) until it reaches an OD540 of 0.3-0.4. At that time the repressor inhibitor IPTG (isopropyl β-D-thiogalactopyranoside) is added to 0.5mM, and the mixture is incubated for 2 additional hours. Bacteria are pelleted, resuspended in a 50mM Tris, 0.6mM EDTA, 0.375M NaCl buffer and digested by the addition of lysozyme (1mg/ml) for 30 minutes on ice. The cells are lysed by the addition of 0.2% NP-40 and brought to 1M NaCl.
After removal of the insoluble debris by centrifugation, the protein is precipitated by the addition of 3 volumes of saturated aqueous ammonium sulfate. The enzyme is pelleted, resuspended in RT buffer (50mM Tris pH 7.5, 1mM EDTA, 5mM DTT, 0.1% NP-40, 0.1M NaCl, and 50% glycerol), and stored at -70°C for further use.
b) Composition of 2X concentrated stock reaction mixture used in testing of compounds 1 to 15
Composition of 2X concentrated stock reaction mixture used in testing compounds 16 and 17
The 2X concentrated stock reaction mixture is aliquoted and stored at - 20°C. The mixture is stable and thawed for use in each assay. This enzyme assay has been adapted to a 96 well microtiter plate system, and has been previously described (6). Tris buffer (50 mM, pH 7.4), vehicle (solvent diluted to match the compound dilution), or compounds in vehicle are dispensed into 96-well microtiter plates (10µl/well; 3 wells/compound). The HIV-1 RT enzyme is thawed, diluted in 50mM Tris pH 7.8 (50mM Tris pH 7.4 in the case of compounds 16 and 17) so that fifteen µl of diluted enzyme contain 0.001 Unit (one unit is that amount of enzyme to transform 1 micromole of substrate per minute at 25°C), and fifteen µl are dispensed per well. Twenty µl of 0.12-0.5M EDTA are added to the first three wells of the microtiter plate. EDTA chelates the Mg^++ present and prevents reverse transcription. This group serves as background polymerization which is subtracted from all other groups. Twenty-five ul of the 2X reaction mixture are added to all wells and the assay is allowed to incubate at room temperature for 60 minutes. The assay is terminated by precipitating the DNA in each well with 50µl of 10% trichloracetic acid (TCA) (10% w/v) in sodium pyrophosphate (1% w/v). The microtiter plate is incubated for 15 minutes at 4°C and the precipitate is fixed onto #30 glass fiber paper (Schleicher & Schuell) using a Skatron semi-automatic harvester. The filters are then washed with additional TCA (5%) containing sodium pyrophosphate (1%), rinsed with aqueous ethanol (70%), dried, and transferred to scintillation vials (6). […]

[2] = test system: HTLV-IIIB strain of HIV-1; test: Human T-Cell Culture Assay (syncytia formation in c8166 cells); assay type: cell-based; conditions: Human immunodeficiency virus 1, IIIB, 96 h, syncytia read four days after virus challenge
Method: In order to confirm that compounds which are active in the RT Assay also have the ability to inhibit HIV replication in a living system, compounds according to the invention were also tested in the human T-Cell Culture Assay described below.
Assay Theory: Formation of syncytia is a feature of in vitro cultures of CD4+ T-cells infected with HIV-1. In this assay, T-cells are treated with a putative replication inhibiting compound and then infected with HIV-1. After incubation, the culture is checked for the formation of syncytia. The absence or reduction in the number of syncytia is used as a measure of the test compound's ability to inhibit HIV replication.
Assay Method: The target cells, designated c8166, are a subclone of human lymphoma cells of T-cell origin and are established at an initial density of 5x10^4 per 100 ul in RPMI 1640 (+ 10% fetal bovine serum) culture medium in 96 well flat bottom plates. A selected amount of test compound, dissolved in DMSO, is included. After 24 hours, 50-100 TCID50's (the dose that results in induced effect in 50% of test cultures) of the HTLV-IIIB strain of HIV-1 (2) are inoculated into each culture. Control cultures receive compound or virus only. Four days after virus challenge, cultures are visually examined for the frequency and distribution of virus-induced giant cell syncytia. The percent inhibition by the test compound is determined by comparison with control values. Confirmation of the presence or absence of virus replication is accomplished by harvesting the cell free culture fluids from all experimental groups to determine the presence or absence of infectious progeny through the induction of syncytia formation in secondary human T-cell cultures after 3 days.

[3] = in vitro; assay type: cell-based; conditions: human, c8166 cells
Method: In order to roughly assess the cytotoxicity of the compounds provided by the invention, several such compounds were tested in the MTT Cellular Cytotoxicity Assay described below. Compounds having a relatively high EC50 are preferred.
The MTT [3-(4,5-dimethylthiazol-2-yl)-2,5 diphenyl tetrazolium bromide) assay is based on cleavage of tetrazolium bromide by metabolically active cells, resulting in a highly quantitative blue color. This assay has been previously described (1) but has been optimized for the purposes of the testing reported herein.
The c8166 cell line (2), an established human lymphoma suspension cell line grown in RPMI 1640 supplemented with 10% fetal bovine serum, is used as the target cell line in the assay. Cells (100µl) are plated in microtest plate wells at a concentration of 10^5 cells per ml in the presence of varying concentrations of inhibitor. The cells are incubated at 37°C in a humidified CO2 incubator. Five days later, 20µl of MTT (5mg/ml in RPMI 1640, sonicated, 0.2 micron filtered, and stored at 4°C) is added to each well. After 4 hours additional incubation at 37°C, 60µl of Triton-X is added to each well and thoroughly mixed to aid the solubilization of the crystals. Absolute ethanol (5µl) is added to each well and the resulting mixture is incubated for 30 minutes at 60°C and immediately read on a plate reader (Dynatech) at a wavelength of 570nm. […]

[4] = 10 µg/ml, reaction mixture for compounds 1 to 15 (Tris pH 7.8, KCl, human serum albumin, 6µM 3H-dGTP in 2X mix), read-out: RT Assay % inhibition @ 10 µg/ml
[5] = pH 7.4, read-out: RT Assay % inhibition @ 10 µg/ml

| Molecule | inhibition at 3 µg/mL [2] [%] | inhibition at 10 µg/mL [1, 4] [%] | also measured |
| --- | --- | --- | --- |
| 2.4-Dimethyl-11-ethyl-6-pyrrolidino-11H-dipyrido[3,2-b:2',3'-e][1,4]diazepine [Example 10] |  |  | RT Assay % inhibition @ 10 µg/ml ([1]; 10 µg/ml, reaction mixture for compounds 1 to 15 (Tris pH 7.8, KCl, human serum albumin, 6µM 3H-dGTP in 2X mix)): 91% |
| Cc1ccnc2c1N=C(Cl)c1cccnc1N2C1CC1 [Example 1, 6-Chloro-11-cyclopropyl-4-methyl-11H-dipyrido[3,2-b:2',3'-e][1,4]diazepine] | > 90 |  | CC50 at 120 h [3]: > 5 mg/L |
| Cc1ccnc2c1N=C(C#N)c1cccnc1N2C1CC1 [Example 2, 6-Cyano-11-cyclopropyl-4-methyl-11H-dipyrido[3,2-b:2',3'-e][1,4]diazepine] | > 50 |  | CC50 at 120 h [3]: 28 mg/L (≈ 102 µM) |
| CCN1c2ncccc2C(C#N)=Nc2c(C)cc(C)nc21 [Example 3, 6-Cyano-2,4-dimethyl-11-ethyl-11H-dipyrido[3,2-b:2',3'-e][1,4]diazepine] | > 50 |  |  |
| CCOC(=O)CSC1=Nc2c(C)ccnc2N(C2CC2)c2ncccc21 [Example 5] |  | 98 |  |
| Cc1ccnc2c1N=C(n1ccnc1)c1cccnc1N2C1CC1 [Example 9] |  | 97 |  |
| Cc1ccnc2c1N=C(S(C)(=O)=O)c1cccnc1N2C1CC1 [Example 14, 11-Cyclopropyl-4-methyl-6-methylsulfonyl-dipyrido[3,2-b:2',3'-e][1,4]diazepine] |  | 100 |  |
| CCOC1=Nc2c(C)cccc2Nc2ncccc21 [Example 16, 5-Ethoxy-7-methyl-11H-pyridol[2,3-b][1,5]benzodiazepine] |  |  | inhibition at 10 µg/mL [1, 5]: 59% |
| COC1=Nc2ccccc2N(C)c2ncccc21 [Example 17, 5-Methoxy-11-methyl-11H-pyrido[2,3-b][1,5]benzodiazepine] |  |  | inhibition at 10 µg/mL [1, 5]: 82% |
